Source: article PMC10487456, “Canagliflozin Inhibited the Activity of Hemolysin and Reduced the Inflammatory Response Caused by Streptococcus suis” (International Journal of Molecular Sciences, 2023)

How the values were obtained:
SLY (hemolysin) [1] = target: T1, SLY (hemolysin) (Streptococcus suis, UniProt Q55996); assay: biochemical; details: read-out: % inhibition at 16 μg/mL
SLY (hemolysin) [2] = target: T1, SLY (hemolysin); assay: biochemical

T1 sequence (Q55996 28-497 limits assumed): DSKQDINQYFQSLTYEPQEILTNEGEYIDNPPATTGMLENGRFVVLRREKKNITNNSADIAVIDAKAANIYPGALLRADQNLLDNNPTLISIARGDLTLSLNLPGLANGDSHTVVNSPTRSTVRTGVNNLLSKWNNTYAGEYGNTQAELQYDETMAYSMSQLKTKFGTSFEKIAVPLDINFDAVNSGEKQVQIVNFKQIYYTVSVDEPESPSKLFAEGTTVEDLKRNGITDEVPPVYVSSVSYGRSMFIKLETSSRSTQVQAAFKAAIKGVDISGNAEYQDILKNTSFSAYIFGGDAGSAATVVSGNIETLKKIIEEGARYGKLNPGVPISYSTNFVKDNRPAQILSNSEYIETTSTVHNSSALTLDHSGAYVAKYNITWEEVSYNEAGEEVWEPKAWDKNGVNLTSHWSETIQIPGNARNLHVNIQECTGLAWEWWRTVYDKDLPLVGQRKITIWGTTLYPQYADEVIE

Which inhibition at 16 µg/mL (SLY (hemolysin) [1]) does the source give for `Cc1ccc([C@@H]2O[C@H](CO)[C@@H](O)[C@H](O)[C@H]2O)cc1Cc1ccc(-c2ccc(F)cc2)s1` [canagliflozin] here?
The inhibition at 16 µg/mL was 76%.

And the Kd (SLY (hemolysin) [2])?
The Kd was 900 nM.
